Assay results as given in patent US11071735B2, “Treatment of inflammatory conditions and autoimmune diseases with glucose uptake inhibitors” (Kadmon Corporation, LLC, priority 2017, dated 2021).

Experiments:
Format in all cases: cell-based
[1] = target: T1, GLUT1 (Homo sapiens, UniProt P11166); test: glycolysis assay in DLD1 WT cells (rely on GLUT1); conditions: for IC50: DLD1-WT cells, 10 μM oligomycin, one hour
T1 construct: endogenous in cells; host or cells: DLD1 WT cancer cells
T1 sequence (P11166 1-492): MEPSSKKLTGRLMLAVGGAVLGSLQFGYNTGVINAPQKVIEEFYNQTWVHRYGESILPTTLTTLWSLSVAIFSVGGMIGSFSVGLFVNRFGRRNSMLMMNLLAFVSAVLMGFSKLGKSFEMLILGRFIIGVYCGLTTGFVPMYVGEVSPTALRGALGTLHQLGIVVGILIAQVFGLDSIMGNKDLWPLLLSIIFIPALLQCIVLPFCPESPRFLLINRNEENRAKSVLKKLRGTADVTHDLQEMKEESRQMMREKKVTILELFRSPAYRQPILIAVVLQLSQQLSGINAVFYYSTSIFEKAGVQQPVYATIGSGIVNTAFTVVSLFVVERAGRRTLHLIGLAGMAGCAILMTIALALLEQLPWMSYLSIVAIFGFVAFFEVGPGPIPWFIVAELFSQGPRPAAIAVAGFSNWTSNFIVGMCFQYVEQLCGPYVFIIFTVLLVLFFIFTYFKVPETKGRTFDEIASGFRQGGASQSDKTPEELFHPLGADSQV
Experimental: (§1) Cells were treated with GLUT inhibitors plus oligomycin and subsequently ATP levels were determined using Cell Titer Glo. […] FIG. 1B reports the IC50 of glycolysis inhibition for selected compounds.
(§2) Accordingly, we have investigated the use of inhibitors of GLUT transporters against activated pro-inflammatory immune cells, including but not limited to activated human CD4+ T cells. In order to understand what GLUT transporters are required to sustain glycolysis in activated T cells, we first utilized the syngeneic cancer cell lines DLD1 WT and DLD GLUT1−/− that rely on GLUT1 and GLUT3 expression, respectively, for glucose transport. Within this system, we have identified small molecules that simultaneously have the property of inhibiting both GLUT1 and GLUT3 mediated glucose transport. In addition, we have confirmed the GLUT1-selective nature of a published small molecule inhibitor of GLUT1 (Chem Med Chem. 2016 Oct. 19; 11(20):2261-2271).
(§3) Determination of glucose uptake/GLUT activity (glycolysis assay): HT1080 cells, DLD1 cells (WT and GLUT1−/−) and human CD4+ T cells were plated in 96-well plates. Cells were exposed to the combination of 10 μM Oligomycin (to block mitochondrial-derived ATP) and the glucose uptake inhibitors disclosed herein for one-hour, after which glycolytically-derived ATP was measured with the Cell Titer-Glo assay kit (Promega). Dose-response curves of the glucose uptake inhibitors disclosed herein were used to determine the IC50 for GLUT activity.

[2] = tested on: activated human CD4+ T cells; test: one-hour glycolysis assay in activated human CD4 T cells; conditions: human CD4 T cells activated 24 hours, one hour treatment plus oligomycin
Experimental: In FIG. 2A, human CD4 positive T cells were activated for 24 hours prior to a one hour treatment with the indicated glucose uptake inhibitors combined with 10 μM oligomycin. In FIG. 2B, human CD4 T cells were activated for 48 hours in the presence of the glucose uptake inhibitors. IL-17 and IL-2 secreted into the supernatant was measured by ELISA (R&D systems). Proliferation was measured by Cell Titer Glo (Promega). FIG. 2C lists the IC50 values (μM) for the glucose uptake inhibitors against activated T cell glycolysis, IL-17 secretion and proliferation. […] In FIG. 3A, human CD4 positive T cells were activated for 24 hours prior to a one hour treatment with Bay876 combined with 1 μM oligomycin. In FIG. 3B, human CD4 T cells were activated for 48 hours in the presence of Bay876. L-17 secreted into the supernatant was measured by ELISA (R&D systems). Proliferation was measured by Cell Titer Glo (Promega). […] At this time, secreted IL-17, IL-2 and relative cell number were measured (FIG. 2B, right panel). […] Cells were exposed to the combination of 10 μM Oligomycin (to block mitochondrial-derived ATP) and the glucose uptake inhibitors disclosed herein for one-hour, after which glycolytically-derived ATP was measured with the Cell Titer-Glo assay kit (Promega). […] IL-17 levels were measured by ELISA (R&D systems, Human IL-17 Quantikine ELISA kit). Proliferation was measured by Cell Titer Glo (Promega). […]

[3] = tested on: GLUT; test: glycolysis assay (oligomycin + Cell Titer-Glo ATP readout) in HT1080 cells; conditions: 10 μM oligomycin, one hour, glycolytically-derived ATP
Description: The combination of inhibitors of both oxidative phosphorylation and glycolysis synergistically suppress cellular ATP levels. Therefore, our assay utilizes the combination of our glucose uptake inhibitors with oligomycin, a well-characterized inhibitor of ATP synthase. Because oligomycin inhibits ATP derived from oxidative phosphorylation, any remaining ATP production is derived from glycolysis. By reading out cellular ATP levels using the Promega
Titer Glo kit, we can assess the extent of glycolysis inhibition by our glucose uptake inhibitors. Using this experimental set-up in HT1080 cancer cells, we determined the IC50 of glycolysis inhibition for the compounds.
as §3

[4] = target: T2, GLUT3 (Homo sapiens, UniProt P11169); test: glycolysis assay in DLD1 GLUT1−/− cells (rely on GLUT3); conditions: DLD1-KO (GLUT1−/−) cells; 10 μM oligomycin, one hour
T2 construct: endogenous in cells; host or cells: DLD1 GLUT1−/− (knock-out) cancer cells
T2 sequence (P11169 1-496): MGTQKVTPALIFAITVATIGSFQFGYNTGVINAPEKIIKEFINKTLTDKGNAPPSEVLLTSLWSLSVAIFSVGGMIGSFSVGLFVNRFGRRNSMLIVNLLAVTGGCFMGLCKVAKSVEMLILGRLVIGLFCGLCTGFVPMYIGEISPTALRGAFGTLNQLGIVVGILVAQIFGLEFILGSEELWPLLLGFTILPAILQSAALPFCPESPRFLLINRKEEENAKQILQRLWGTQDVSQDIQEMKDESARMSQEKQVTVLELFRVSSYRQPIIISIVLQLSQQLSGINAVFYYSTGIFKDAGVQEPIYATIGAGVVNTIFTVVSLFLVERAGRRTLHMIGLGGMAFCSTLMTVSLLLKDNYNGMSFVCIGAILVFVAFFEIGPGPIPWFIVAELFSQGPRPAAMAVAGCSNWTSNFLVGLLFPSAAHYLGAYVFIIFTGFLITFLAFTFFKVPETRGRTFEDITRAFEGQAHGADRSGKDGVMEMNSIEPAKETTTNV
Experimental: as §1, §2, §3

Structure (SMILES) | GLUT selectivity (inhibition of glycolysis) ([1]; DLD1 WT versus DLD1 GLUT1−/− cells) | glycolysis in activated T cells [2] | IC50 [3] [nM] | IC50 [4] [nM] | IC50 [1] [nM]
Cc1c(NC(=O)c2cc(C(N)=O)nc3cc(F)ccc23)c(C(F)(F)F)nn1Cc1ccc(C#N)cc1 [Bay876] | selective for GLUT1 | neither inhibited glycolysis |  |  | 
CCC(C)NC(=O)COc1cccc(-c2nc(Nc3ccc(-c4cn[nH]c4)cc3)c3cc(OCCF)ccc3n2)c1 (centres unmarked) [Ex. 43, 2-(3-(4-((4-(1H-pyrazol-4-yl)phenyl)amino)-6-(2-fluoroethoxy)quinazolin-2-yl)phenoxy)-N-(sec-butyl)acetamide] |  |  | 46 | 58.9 | 34.4
CCC(C)NC(=O)COc1cccc(-c2nc(Nc3ccc(-c4cn[nH]c4)cc3)c3cc(F)ccc3n2)c1 (centres unmarked) [Ex. 44, 2-(3-(4-((4-(1H-pyrazol-4-yl)phenyl)amino)-6-fluoroquinazolin-2-yl)phenoxy)-N-(sec-butyl)acetamide] |  |  | 123 | 159 | 91.2
CC[C@H](C)NC(=O)COc1cccc(-c2nc(Nc3ccc(-c4cn[nH]c4)cc3)c3cc(OCCOC)ccc3n2)c1 [Ex. 45, (S)-2-(3-(4-((4-(1H-pyrazol-4-yl)phenyl)amino)-6-(2-methoxyethoxy)quinazolin-2-yl)phenoxy)-N-(sec-butyl)acetamide] |  |  | 25.1 | 40.6 | 25.2
CC[C@H](C)NC(=O)COc1cccc(-c2nc(Nc3ccc(-c4cn[nH]c4)cc3)c3cc(OCCF)ccc3n2)c1 [Ex. 46, (S)-2-(3-(4-((4-(1H-pyrazol-4-yl)phenyl)amino)-6-(2-fluoroethoxy)quinazolin-2-yl)phenoxy)-N-(sec-butyl)acetamide] |  |  | 37.1 | 87 | 34.8
CC[C@H](C)NC(=O)COc1cccc(-c2nc(Nc3ccc(-c4cn[nH]c4)cc3)c3cc(F)ccc3n2)c1 [Ex. 47, (S)-2-(3-(4-((4-(1H-pyrazol-4-yl)phenyl)amino)-6-fluoroquinazolin-2-yl)phenoxy)-N-(sec-butyl)acetamide] |  |  | 111 | 133 | 94.9
CC[C@H](C)NC(=O)COc1cccc(-c2nc(Nc3ccc(-c4cn[nH]c4)cc3)c3cc(OC)ccc3n2)c1 [Ex. 48, (S)-2-(3-(4-((4-(1H-pyrazol-4-yl)phenyl)amino)-6-methoxyquinazolin-2-yl)phenoxy)-N-(sec-butyl)acetamide] |  |  | 81.5 | 110 | 71.6
CC[C@@H](C)NC(=O)COc1cccc(-c2nc(Nc3ccc(-c4cn[nH]c4)cc3)c3cc(OCCOC)ccc3n2)c1 [Ex. 49, (R)-2-(3-(4-((4-(1H-pyrazol-4-yl)phenyl)amino)-6-(2-methoxyethoxy)quinazolin-2-yl)phenoxy)-N-(sec-butyl)acetamide] |  |  | 30.7 | 50.9 | 30.3
CC[C@@H](C)NC(=O)COc1cccc(-c2nc(Nc3ccc(-c4cn[nH]c4)cc3)c3cc(OCCF)ccc3n2)c1 [Ex. 50, (R)-2-(3-(4-((4-(1H-pyrazol-4-yl)phenyl)amino)-6-(2-fluoroethoxy)quinazolin-2-yl)phenoxy)-N-(sec-butyl)acetamide] |  |  | 44.7 | 72.1 | 38.5
CC[C@@H](C)NC(=O)COc1cccc(-c2nc(Nc3ccc(-c4cn[nH]c4)cc3)c3cc(F)ccc3n2)c1 [Ex. 51, (R)-2-(3-(4-((4-(1H-pyrazol-4-yl)phenyl)amino)-6-fluoroquinazolin-2-yl)phenoxy)-N-(sec-butyl)acetamide] |  |  | 113 | 125 | 106
CC[C@@H](C)NC(=O)COc1cccc(-c2nc(Nc3ccc(-c4cn[nH]c4)cc3)c3cc(OC)ccc3n2)c1 [Ex. 52, (R)-2-(3-(4-((4-(1H-pyrazol-4-yl)phenyl)amino)-6-methoxyquinazolin-2-yl)phenoxy)-N-(sec-butyl)acetamide] |  |  | 92.1 | 118 | 81.6
CCC(C)NC(=O)COc1cccc(-c2nc(Nc3ccc(-c4cn[nH]c4)cc3)c3ccc(F)cc3n2)c1 (centres unmarked) [Ex. 53, 2-(3-(4-((4-(1H-pyrazol-4-yl)phenyl)amino)-7-fluoroquinazolin-2-yl)phenoxy)-N-(sec-butyl)acetamide] |  |  | 283 | 271 | 222
CC[C@H](C)NC(=O)COc1cccc(-c2nc(Nc3ccc(-c4cn[nH]c4)cc3)c3ccc(F)cc3n2)c1 [Ex. 54, (S)-2-(3-(4-((4-(1H-pyrazol-4-yl)phenyl)amino)-7-fluoroquinazolin-2-yl)phenoxy)-N-(sec-butyl)acetamide] |  |  | 196 | 290 | 146
CC[C@@H](C)NC(=O)COc1cccc(-c2nc(Nc3ccc(-c4cn[nH]c4)cc3)c3ccc(F)cc3n2)c1 [Ex. 55, (R)-2-(3-(4-((4-(1H-pyrazol-4-yl)phenyl)amino)-7-fluoroquinazolin-2-yl)phenoxy)-N-(sec-butyl)acetamide] |  |  | 190 | 238 | 192
